From ChEMBL document CHEMBL3137667, “[Drug-induced liver injury; fourteenth updated edition of the bibliographic database of liver injuries and related drugs]” (Gastroenterol Clin Biol, 2004) come the findings set out here.

Each structure is given as a SMILES string.

The conditions of data set [1]: human, serum, 4383 h.
A short description of data set [2]: Proposed mechanism(s) of liver damage. [column 'MEC' in source]. Particulars: human.
The conditions of data set [3]: human.
Data set [4] can be described thus: Highest frequency of acute liver toxicity observed during clinical trials, expressed as a percentage. [column '% AIGUE' in source]. Particulars: human.
For data set [5] the following is noted: human. This is another data set of the same source.
The nature of data set [6]: Highest frequency of moderate liver toxicity observed during clinical trials, expressed as a percentage. [column '% BIOL' in source]. Particulars: human.
The conditions of data set [7]: human. This is another data set of the same source.
The conditions of data set [8]: human. The source holds these as a separate data set.
For data set [9] the following is noted: human. The source holds these as a separate data set.
The conditions of data set [10]: human, serum.
Data set [11] is described as follows: Times to onset, minimal and maximal, observed in the indexed observations. [column 'DELAI' in source]. The settings on record: human.
The conditions of data set [12]: human. The source holds these as a separate data set.
For data set [13] the following is noted: human, serum. The source holds these as a separate data set.
Data set [14] can be described thus: Comments (NB not yet translated). [column 'COMMENTAIRES' in source]. The settings on record: human.
For data set [15] the following is noted: human. The source holds these as a separate data set.
The conditions of data set [16]: human. The source holds these as a separate data set.
For data set [17] the following is noted: human. This is another data set of the same source.
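For Hepatotoxicity (association with vascular disease) in this document: count of indexed literature references reporting vascular liver injury in humans, e.g. peliosis hepatitis, hepatic veno-occlusive disease or Budd-Chiari syndrome.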
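For Hepatotoxicity (benign tumour) in this document: value is a count of indexed literature references citing a benign tumour confirmed by histopathology.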
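For Hepatotoxicity (choleostasis) in this document: human cholestatic liver injury, shown by histopathology or by peak ALT or AST elevation over alkaline phosphatase ratio below 2, value counts indexed literature reports.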
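For Hepatotoxicity (chronic liver disease) in this document: chronic liver injury confirmed by histopathology or persistently raised serum aminotransferase activity beyond 6 months, value given as the count of indexed literature references.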
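For Hepatotoxicity (cirrhosis) in this document: value is a count of indexed literature references reporting cirrhosis confirmed by histopathology.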
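For Hepatotoxicity (cytolytic) in this document: human cytolytic liver injury, shown by histopathology or by a ratio above 5 of peak ALT or AST elevation to alkaline phosphatase elevation, value counts indexed references.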
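For Hepatotoxicity (granulomatous hepatitis) in this document: value is a count of indexed literature references reporting granulomatous liver disease confirmed by histopathology.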
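For Hepatotoxicity (malignant tumour) in this document: malignant tumour confirmed by histopathology, value gives the count of indexed literature references reporting it.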
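For Hepatotoxicity (severe hepatitis) in this document: human clinical data: severe hepatitis, meaning potentially life-threatening liver failure or clinically observed cases, the value counts how many indexed literature references report it.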
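For Hepatotoxicity (steatosis) in this document: steatosis confirmed by histopathology, value is the count of indexed references.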

On to `CCc1nc(N)nc(N)c1-c1ccc(Cl)cc1` [PYRIMETHAMINE], for which the “Hepatotoxicity (chronic liver disease)” value in data set [1] worked out at 0. Further, the “Hepatotoxicity (mechanism)” value in data set [2] is reported as “Dose-dependant”. In data set [3], the “Hepatotoxicity (cytolytic)” value was found to be 0. Also, the “Hepatotoxicity (acute)” value in data set [4] was found to be 0%; in data set [13] it was 1. The “Hepatotoxicity (steatosis)” value in data set [5] is 1. The entries for the “Hepatotoxicity (moderate)” value in data set [6] and in [10] were 28.6% and 8, respectively. Besides, in [7], the “Hepatotoxicity (association with vascular disease)” value worked out at 0. In addition, the “Hepatotoxicity (granulomatous hepatitis)” value in data set [8] was 1. Besides, the “Hepatotoxicity (severe hepatitis)” value in data set [9] amounted to 0. Besides, the “Hepatotoxicity (time to onset)” value in data set [11] was determined as 4 hours - 4 months. For the same compound, the “Hepatotoxicity (choleostasis)” value in data set [12] worked out at 1. In addition, the “Hepatotoxicity (comment)” value in data set [14] is reported as “I/LORAZEPAM”. The “Hepatotoxicity (malignant tumour)” value in data set [15] turned out to be 0. In [16], the “Hepatotoxicity (benign tumour)” value amounted to 0. The “Hepatotoxicity (cirrhosis)” value in [17] was found to be 0.
For the compound `CCCc1cc(C(N)=S)ccn1` [PROTIONAMIDE], the “Hepatotoxicity (chronic liver disease)” value in [1] is 0. For the same compound, in [2], the “Hepatotoxicity (mechanism)” value is reported as “Dose-dependant”. Moreover, in data set [3], the “Hepatotoxicity (cytolytic)” value worked out at 4. Also, the “Hepatotoxicity (acute)” value in data set [4] was 2.5%; in [13], 7. Further, the “Hepatotoxicity (steatosis)” value in data set [5] came out at 0. Moreover, the “Hepatotoxicity (moderate)” value in data set [6] is 13%; in [10], 8. For the same compound, the “Hepatotoxicity (association with vascular disease)” value in data set [7] was 0. Moreover, the “Hepatotoxicity (granulomatous hepatitis)” value in [8] is listed as 0. In [9], the “Hepatotoxicity (severe hepatitis)” value amounted to 2. Also, the “Hepatotoxicity (time to onset)” value in data set [11] was 3 months - 1 year. Also, the “Hepatotoxicity (choleostasis)” value in data set [12] is reported as 0. For the same compound, the “Hepatotoxicity (comment)” value in data set [14] was “I/PILULE”. Further, the “Hepatotoxicity (malignant tumour)” value in [15] came out at 0. Besides, the “Hepatotoxicity (benign tumour)” value in [16] amounted to 0. Further, in data set [17], the “Hepatotoxicity (cirrhosis)” value turned out to be 0.
With `CC[C@H]1OC(=O)[C@H](C)[C@@H](O[C@H]2C[C@@](C)(OC)[C@@H](O)[C@H](C)O2)[C@H](C)[C@@H](O[C@@H]2O[C@H](C)C[C@H](N(C)C)[C@H]2O)[C@](C)(O)C[C@@H](C)CN(C)[C@H](C)[C@@H](O)[C@]1(C)O` [AZITHROMYCIN], the “Hepatotoxicity (chronic liver disease)” value in [1] was determined as 0. In addition, the “Hepatotoxicity (mechanism)” value in data set [2] is listed as “Allergic”. Besides, in [3], the “Hepatotoxicity (cytolytic)” value is listed as 0. Besides, the “Hepatotoxicity (acute)” value in data set [4] was determined as 0%; in [13], 5. The “Hepatotoxicity (steatosis)” value in data set [5] is recorded as 0. Further, the entries for the “Hepatotoxicity (moderate)” value in data set [6] and in data set [10] were 40% and 53, respectively. Besides, the “Hepatotoxicity (association with vascular disease)” value in data set [7] is 0. In data set [8], the “Hepatotoxicity (granulomatous hepatitis)” value is listed as 0. Moreover, the “Hepatotoxicity (severe hepatitis)” value in [9] is on record as 0. Moreover, the “Hepatotoxicity (time to onset)” value in [11] was found to be 3 days - 18 days. Further, the “Hepatotoxicity (choleostasis)” value in data set [12] came out at 4. Moreover, the “Hepatotoxicity (comment)” value in data set [14] is “CHOLANGITE”. Also, the “Hepatotoxicity (malignant tumour)” value in data set [15] was 0. Also, the “Hepatotoxicity (benign tumour)” value in data set [16] is 0. In addition, in data set [17], the “Hepatotoxicity (cirrhosis)” value turned out to be 0.
As for `CC(C)c1c(C(=O)Nc2ccccc2)c(-c2ccccc2)c(-c2ccc(F)cc2)n1CC[C@@H](O)C[C@@H](O)CC(=O)O` [ATORVASTATIN], the “Hepatotoxicity (chronic liver disease)” value in [1] was 1. The “Hepatotoxicity (mechanism)” value in [2] is “Allergic”. Moreover, the “Hepatotoxicity (cytolytic)” value in data set [3] is reported as 5. Also, the “Hepatotoxicity (acute)” value worked out at 1.8% in data set [4] and 10 in data set [13]. Moreover, in data set [5], the “Hepatotoxicity (steatosis)” value is 0. Further, the results for the “Hepatotoxicity (moderate)” value in [6] and in data set [10] were 13.6% and 36, respectively. For the same compound, in [7], the “Hepatotoxicity (association with vascular disease)” value came out at 0. The “Hepatotoxicity (granulomatous hepatitis)” value in data set [8] worked out at 0. Besides, the “Hepatotoxicity (severe hepatitis)” value in [9] came to 1. Further, in data set [11], the “Hepatotoxicity (time to onset)” value came out at 6 days - 7 months. The “Hepatotoxicity (choleostasis)” value in data set [12] is 6. Also, the “Hepatotoxicity (comment)” value in data set [14] is “AC_ANTI-N/-ML”. Further, in data set [15], the “Hepatotoxicity (malignant tumour)” value was 0. For the same compound, in data set [16], the “Hepatotoxicity (benign tumour)” value came out at 0. Also, in [17], the “Hepatotoxicity (cirrhosis)” value is given as 1.
Consider `CCOC(=O)C1=C(COCCN)NC(C)=C(C(=O)OC)C1c1ccccc1Cl` (stereo not given) [AMLODIPINE], for which the “Hepatotoxicity (chronic liver disease)” value in data set [1] worked out at 0. In [2], the “Hepatotoxicity (mechanism)” value is “Allergic”. Further, in [3], the “Hepatotoxicity (cytolytic)” value is listed as 3. The “Hepatotoxicity (acute)” value in data set [4] (Liver) is reported as 0%; in data set [13], 4. For the same compound, the “Hepatotoxicity (steatosis)” value in data set [5] came to 0. Also, the “Hepatotoxicity (moderate)” value in [6] (Liver) was 12.8%; in [10], 2. Moreover, in data set [7], the “Hepatotoxicity (association with vascular disease)” value stood at 0. In addition, in data set [8], the “Hepatotoxicity (granulomatous hepatitis)” value was 0. Moreover, the “Hepatotoxicity (severe hepatitis)” value in data set [9] (Liver) came to 0. Further, the “Hepatotoxicity (time to onset)” value in data set [11] was determined as 1 month - 10 months. In data set [12], the “Hepatotoxicity (choleostasis)” value was 2. The “Hepatotoxicity (comment)” value in [14] is listed as “CHOLANGIOLITE AC_ANTI-M/-N RC/DILTIAZEM”. In addition, in data set [15], the “Hepatotoxicity (malignant tumour)” value was 0. Besides, the “Hepatotoxicity (benign tumour)” value in data set [16] was determined as 0. In addition, the “Hepatotoxicity (cirrhosis)” value in data set [17] worked out at 0.
On to `NCCCC[C@H](N[C@@H](CCc1ccccc1)C(=O)O)C(=O)N1CCC[C@H]1C(=O)O` [LISINOPRIL ANHYDROUS], for which the “Hepatotoxicity (chronic liver disease)” value in [1] was determined as 1. Moreover, in data set [2], the “Hepatotoxicity (mechanism)” value is given as “Allergic”. In data set [3], the “Hepatotoxicity (cytolytic)” value was found to be 2. Moreover, the figures for the “Hepatotoxicity (acute)” value in [4] and in data set [13] were 0% and 3, respectively. Further, in data set [5], the “Hepatotoxicity (steatosis)” value is recorded as 0. The “Hepatotoxicity (moderate)” value in data set [6] came to 7.7%; in data set [10] it was 4. Also, in [7], the “Hepatotoxicity (association with vascular disease)” value turned out to be 0. For the same compound, in data set [8], the “Hepatotoxicity (granulomatous hepatitis)” value stood at 0. For the same compound, the “Hepatotoxicity (severe hepatitis)” value in data set [9] is reported as 1. Further, in [11], the “Hepatotoxicity (time to onset)” value worked out at 9 days - 5 months. The “Hepatotoxicity (choleostasis)” value in [12] was 0. Also, the “Hepatotoxicity (comment)” value in [14] was “AC_ANTI-ML RC/LISINOPRIL”. Also, the “Hepatotoxicity (malignant tumour)” value in [15] came to 0. The “Hepatotoxicity (benign tumour)” value in [16] amounted to 0. Besides, the “Hepatotoxicity (cirrhosis)” value in data set [17] is recorded as 0.
For `Cc1noc(NS(=O)(=O)c2ccc(N)cc2)c1C` [SULFISOXAZOLE], in data set [1], the “Hepatotoxicity (chronic liver disease)” value was 0. Besides, in data set [2], the “Hepatotoxicity (mechanism)” value is “Allergic”. Moreover, in data set [3], the “Hepatotoxicity (cytolytic)” value is recorded as 1. The “Hepatotoxicity (acute)” value in [4] (Liver) worked out at 0%; in data set [13], 4. In data set [5], the “Hepatotoxicity (steatosis)” value was 0. Besides, the figures for the “Hepatotoxicity (moderate)” value in data set [6] (Liver) and in data set [10] were 0% and 0, respectively. Besides, in data set [7], the “Hepatotoxicity (association with vascular disease)” value is given as 0. Moreover, in data set [8], the “Hepatotoxicity (granulomatous hepatitis)” value was 0. The “Hepatotoxicity (severe hepatitis)” value in data set [9] (Liver) was found to be 1. For the same compound, the “Hepatotoxicity (time to onset)” value in [11] amounted to 2 days - 6 days. Also, the “Hepatotoxicity (choleostasis)” value in data set [12] worked out at 2. Also, the “Hepatotoxicity (comment)” value in data set [14] is “CHOLANGITE RC/COTRIMOXAZOLE”. In addition, the “Hepatotoxicity (malignant tumour)” value in data set [15] is listed as 0. For the same compound, the “Hepatotoxicity (benign tumour)” value in data set [16] is listed as 0. In addition, the “Hepatotoxicity (cirrhosis)” value in data set [17] amounted to 0.
With `Cc1cnc(C(=O)NCCc2ccc(S(=O)(=O)NC(=O)NC3CCCCC3)cc2)cn1` [GLIPIZIDE], the “Hepatotoxicity (chronic liver disease)” value in data set [1] was found to be 0. Also, in data set [2], the “Hepatotoxicity (mechanism)” value is on record as “Allergic”. In addition, the “Hepatotoxicity (cytolytic)” value in data set [3] was determined as 3. In addition, the “Hepatotoxicity (steatosis)” value in data set [5] was determined as 0. The “Hepatotoxicity (moderate)” value turned out to be 0% in [6] (Liver) and 1 in data set [10]. The “Hepatotoxicity (association with vascular disease)” value in data set [7] came to 0. Moreover, the “Hepatotoxicity (granulomatous hepatitis)” value in data set [8] is given as 0. Besides, the “Hepatotoxicity (severe hepatitis)” value in [9] (Liver) was 2. Also, the “Hepatotoxicity (time to onset)” value in data set [11] stood at 2 days - 5 months. The “Hepatotoxicity (choleostasis)” value in data set [12] was 0. The “Hepatotoxicity (comment)” value in data set [14] is reported as “AC_ANTI-ML”. The “Hepatotoxicity (malignant tumour)” value in [15] was found to be 0. In addition, the “Hepatotoxicity (benign tumour)” value in data set [16] stood at 0. For the same compound, the “Hepatotoxicity (cirrhosis)” value in data set [17] came to 0.
For `O=C(Nc1ccc(Cl)cc1)NS(=O)(=O)c1ccc2c(c1)CCC2` [SULOFENUR], the “Hepatotoxicity (chronic liver disease)” value in [1] is given as 0. Further, the “Hepatotoxicity (mechanism)” value in [2] is “Dose-dependant”. In addition, in data set [3], the “Hepatotoxicity (cytolytic)” value worked out at 4. The “Hepatotoxicity (acute)” value is listed as 18.8% in [4] and 6 in data set [13]. In addition, the “Hepatotoxicity (steatosis)” value in [5] turned out to be 0. Besides, the “Hepatotoxicity (moderate)” value is 80% in data set [6] and 9 in data set [10]. Besides, the “Hepatotoxicity (association with vascular disease)” value in [7] was 0. Also, in data set [8], the “Hepatotoxicity (granulomatous hepatitis)” value is listed as 0. Also, in data set [9], the “Hepatotoxicity (severe hepatitis)” value amounted to 0. In addition, the “Hepatotoxicity (choleostasis)” value in data set [12] was found to be 3. Besides, the “Hepatotoxicity (comment)” value in data set [14] is “CHOLANGITE”. Besides, the “Hepatotoxicity (malignant tumour)” value in [15] was 0. In [16], the “Hepatotoxicity (benign tumour)” value was found to be 0. For the same compound, in data set [17], the “Hepatotoxicity (cirrhosis)” value turned out to be 0.
